Some test systems named below: CCRF-CEM; MDA-MB-435; NCI/ADR-RES; A498; HOP-62; 786-0; Hs-578T; OVCAR-4; RXF 393; ACHN; HCT-15; K562; SNB-19; MOLT-4; A549; OVCAR-3; NCI-H23; Malme-3M; MDA-N; U-251.
Experiment in all cases: NCI tumour cell line growth inhibition, 48 h

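Each compound was tested at five concentrations against cells in 96-well plates for 48 hours. Abbreviation: GI50, concentration required for 50% inhibition of growth.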 Active and inactive are the calls of the source. Cut-off read from the data, not from the text of the source: active = GI50 up to about 1.1 µM and inactive = higher. Bounds are passed on as bounds.

This note sets out measurements from ChEMBL document CHEMBL1201862, “PubChem BioAssay data set” (2004).

`COc1cccc(/N=N/C(=N/NC(=O)c2cc(Cl)ccc2O)c2ccc(N(CCC#N)CCC#N)cc2C)c1`: the GI50 is 15.3 µM (inactive) in the assay on CCRF-CEM; 64.4 µM (inactive) in the assay with MDA-MB-435; 49 µM (inactive) in the assay on NCI/ADR-RES; 26.4 µM (inactive) in the assay with A498; 66.5 µM (inactive) in the assay with HOP-62; 43.3 µM (inactive) in the assay with 786-0. The GI50 in the assay on Hs-578T is 33.2 µM (inactive); in the assay with OVCAR-4, 19.8 µM (inactive); with RXF 393 it was 38.1 µM (inactive); with ACHN, 46.3 µM (inactive); in the assay with HCT-15, 33.3 µM; in the assay with K562 it was 21.3 µM (inactive). The GI50 was 53.5 µM (inactive) in the assay on SNB-19; 19.1 µM (inactive) in the assay on MOLT-4; 62.1 µM (inactive) with A549; 2.06 µM (inactive) with OVCAR-3; 35 µM (inactive) with NCI-H23; 17.5 µM (inactive) in the assay on Malme-3M. In addition, the GI50 is 41.1 µM (inactive) in the assay on MDA-N and 38.3 µM (inactive) with U-251.
Regarding `O=C1c2cc(Cl)ccc2N=C(NC2CCCC2)C2CSCN12` (configuration not stated), the GI50 is 45.2 µM (inactive) with CCRF-CEM; > 100 µM (inactive) in the assay on MDA-MB-435; > 100 µM (inactive) in the assay on NCI/ADR-RES; 68.9 µM (inactive) in the assay with A498; > 100 µM (inactive) in the assay on HOP-62; > 100 µM (inactive) with 786-0. In addition, the GI50 was 39.6 µM (inactive) in the assay on Hs-578T; > 100 µM (inactive) in the assay with OVCAR-4; 92.9 µM (inactive) with RXF 393; > 100 µM (inactive) in the assay on ACHN; greater than 100 µM in the assay with HCT-15; 59.2 µM (inactive) in the assay on K562. Further, the GI50 with SNB-19 is > 100 µM (inactive); in the assay with MOLT-4 it was 33.5 µM (inactive); with A549, > 100 µM (inactive); with OVCAR-3, 60 µM (inactive); with Malme-3M, > 100 µM (inactive); in the assay with MDA-N it was > 100 µM (inactive). Also, the GI50 in the assay on U-251 is > 100 µM (inactive).
As for `CCOc1ccc(/N=N/C2C(=O)N(C(=O)CC(=O)Nc3ccccc3OC)N=C2C)cc1` (configuration not stated), the GI50 in the assay with CCRF-CEM was > 100 µM (inactive); in the assay with MDA-MB-435, 1.93 µM (inactive); in the assay with NCI/ADR-RES it was 30 µM (inactive); in the assay on A498 it was > 30.1 µM (inactive); with HOP-62, > 33.4 µM (inactive); in the assay on 786-0, > 39.1 µM (inactive). The GI50 with Hs-578T was 2.85 µM (inactive); in the assay with OVCAR-4 it was > 19.7 µM (inactive); in the assay on RXF 393, 12.5 µM (inactive); in the assay on ACHN, > 100 µM (inactive); in the assay on HCT-15, 14.5 µM; in the assay with K562, 13.2 µM (inactive). The GI50 is > 22.3 µM (inactive) with MOLT-4; > 43.3 µM (inactive) with A549; 8.83 µM (inactive) with OVCAR-3; 38 µM (inactive) in the assay on NCI-H23; 21.1 µM (inactive) in the assay with Malme-3M; 2.52 µM (inactive) in the assay with MDA-N. The GI50 with U-251 was > 36 µM (inactive).
As to `CCN(CCO)CC1CCCC2CCCCC21` (configuration not stated), the GI50 in the assay with MDA-MB-435, in the assay with NCI/ADR-RES, in the assay on A498, with HOP-62, with 786-0 and with Hs-578T was > 100 µM (inactive) in each case. The GI50 in the assay with OVCAR-4 is > 100 µM (inactive); in the assay with RXF 393, > 100 µM (inactive); in the assay on ACHN, > 100 µM (inactive); with HCT-15 it was greater than 100 µM; in the assay with K562 it was 46.5 µM (inactive); with SNB-19 it was > 100 µM (inactive). Also, the GI50 in the assay on A549, in the assay with OVCAR-3, with NCI-H23, in the assay with Malme-3M, with MDA-N and in the assay with U-251 was > 100 µM (inactive) each time.
`O=C(c1ccc(Cl)c(Cl)c1)N(C(=S)OC12CC3CC(CC(C3)C1)C2)c1ccccc1`: the GI50 in the assay on CCRF-CEM is 2.8 µM (inactive); in the assay on MDA-MB-435, 30.2 µM (inactive); in the assay with NCI/ADR-RES it was 30.1 µM (inactive); in the assay with A498, 37.1 µM (inactive); with HOP-62, 44.6 µM (inactive); in the assay with 786-0 it was 30.3 µM (inactive). Moreover, the GI50 in the assay on Hs-578T is 41.3 µM (inactive); in the assay on OVCAR-4, 38.2 µM (inactive); in the assay with RXF 393, > 100 µM (inactive); in the assay with ACHN it was 34.8 µM (inactive); with HCT-15, 33.3 µM; in the assay on K562, 17.1 µM (inactive). Moreover, the GI50 in the assay on SNB-19 was 33.3 µM (inactive); with A549 it was 32.2 µM (inactive); with OVCAR-3 it was 39.4 µM (inactive); in the assay with NCI-H23, 28.9 µM (inactive); in the assay on Malme-3M, 34.9 µM (inactive); in the assay with MDA-N it was 32.7 µM (inactive). Moreover, the GI50 with U-251 was 34.6 µM (inactive).
Turning to `CCCCCCCCCCCCCC[C@@H](O)[C@H]1CC[C@H]([C@H]2CC[C@H]([C@H](O)CCCCCC[C@@H](O)CC3=C[C@H](C)OC3=O)O2)O1`, the GI50 in the assay with CCRF-CEM was > 25 µM (inactive); in the assay on MDA-MB-435, > 25 µM (inactive); in the assay with NCI/ADR-RES, > 20.1 µM (inactive); in the assay on A498, > 12.5 µM (inactive); in the assay with HOP-62 it was > 25 µM (inactive); in the assay with 786-0, > 25 µM (inactive). The GI50 is 1.63 µM (inactive) with Hs-578T; > 25 µM (inactive) in the assay with OVCAR-4; > 25 µM (inactive) in the assay with RXF 393; > 25 µM (inactive) with ACHN; greater than 25 µM with HCT-15; > 25 µM (inactive) in the assay with SNB-19. The GI50 in the assay with A549 was > 25 µM (inactive); with OVCAR-3, > 25 µM (inactive); in the assay with NCI-H23 it was 1.2 µM (inactive); with Malme-3M it was > 25 µM (inactive); with MDA-N it was 2.03 µM (inactive); in the assay on U-251, > 25 µM (inactive).
With `Cn1c(=O)c2nc(CCCc3ccc([N+](=O)[O-])cc3)[nH]c2n(C)c1=O`, the GI50 with MDA-MB-435, with NCI/ADR-RES, in the assay on A498, with HOP-62, in the assay on 786-0 and in the assay with Hs-578T was > 100 µM (inactive) in each case. In addition, the GI50 is > 100 µM (inactive) with OVCAR-4; > 100 µM (inactive) in the assay with RXF 393; > 100 µM (inactive) in the assay with ACHN; greater than 100 µM in the assay with HCT-15; 31.2 µM (inactive) in the assay on K562; > 100 µM (inactive) with SNB-19. In addition, the GI50 with MOLT-4 was 56.6 µM (inactive); in the assay on A549, > 100 µM (inactive); in the assay with OVCAR-3 it was > 100 µM (inactive); in the assay on NCI-H23, > 100 µM (inactive); with Malme-3M it was > 100 µM (inactive); in the assay with MDA-N, > 100 µM (inactive). Also, the GI50 in the assay on U-251 was > 100 µM (inactive).
As to `COCC12CCC(OC)C34C5CC6(O)C(OC)C=C(C5C6OC(=O)c5ccccc5)C(C(OC)C13)C4N(C)C2` (configuration not stated), the GI50 with CCRF-CEM, in the assay on MDA-MB-435, in the assay on NCI/ADR-RES, in the assay on A498, in the assay with HOP-62 and in the assay on 786-0 was > 100 µM (inactive) throughout. Besides, the GI50 in the assay with Hs-578T is 27.1 µM (inactive); with OVCAR-4, > 100 µM (inactive); with RXF 393, > 100 µM (inactive); with ACHN it was > 100 µM (inactive); in the assay on HCT-15, greater than 100 µM; in the assay with SNB-19, > 100 µM (inactive). Besides, the GI50 in the assay with A549, in the assay on OVCAR-3, in the assay with NCI-H23, with Malme-3M, in the assay on MDA-N and in the assay on U-251 was > 100 µM (inactive) each time.
Regarding `CC[C@H]1C=CCC[C@@]2(C[C@@H]3CC[C@H]4[C@@H](C(=O)OCCCCCCCCCCCCCCCC(=O)N(CCCNC(C)=O)C[C@H](CCNC(C)=O)OC(C)=O)[C@@]5(CCC[C@@H](C)O5)NC(=[N+]34)N2)O1`, the GI50 in the assay on MDA-MB-435 is 1.64 µM (inactive); in the assay with NCI/ADR-RES, > 10 µM (inactive); with A498, 1.83 µM (inactive); with HOP-62 it was 2 µM (inactive); in the assay on 786-0 it was 1.98 µM (inactive); in the assay on Hs-578T, 1.93 µM (inactive). For the same molecule, the GI50 in the assay with OVCAR-4 was 1.4 µM (inactive); with RXF 393, 1.79 µM (inactive); with ACHN, 1.89 µM (inactive); in the assay on HCT-15 it was 1.7 µM; in the assay with K562, 0.708 µM (active); in the assay with SNB-19, 1.62 µM (inactive). The GI50 in the assay on MOLT-4 was 1.23 µM (inactive); in the assay on A549, 1.88 µM (inactive); with OVCAR-3 it was 0.787 µM (active); in the assay on NCI-H23 it was 1.58 µM (inactive); in the assay with Malme-3M, 1.54 µM (inactive); with MDA-N, 1.69 µM (inactive). The GI50 with U-251 is 0.914 µM (active).
With `COc1cc(/C=C2/SC(c3ccccc3)N(c3cccc(NC(C)=O)c3)C2=O)cc(OC)c1OC` (configuration not stated), the GI50 was 35 µM (inactive) in the assay with MDA-MB-435; 40.7 µM (inactive) with NCI/ADR-RES; > 100 µM (inactive) with A498; 81.8 µM (inactive) with HOP-62; 81.8 µM (inactive) with 786-0; 23.9 µM (inactive) in the assay on Hs-578T. Besides, the GI50 with OVCAR-4 is 66.2 µM (inactive); in the assay with RXF 393 it was 24.8 µM (inactive); with ACHN, > 100 µM (inactive); with HCT-15, 46.9 µM; in the assay on K562 it was 35.6 µM (inactive); in the assay with SNB-19, 31 µM (inactive). Moreover, the GI50 in the assay on MOLT-4 is 31.3 µM (inactive); with A549, 47.4 µM (inactive); in the assay with OVCAR-3 it was 60.1 µM (inactive); in the assay with NCI-H23, 44.9 µM (inactive); in the assay with Malme-3M, 28.8 µM (inactive); in the assay with MDA-N, 25.5 µM (inactive).
